Reference: patent US4344958A, “Method of inhibiting sickling of sickle erythrocytes using substituted-2-imidazolines” (priority 1980, dated 1982)

Key:
[1] = biological target: Hb-S (Homo sapiens, UniProt P68871+P69905, E7V); experiment: Oxygen-Affinity Assay (whole Hb-S blood, tonometer); assay type: cell-based; design: key: ΔP50 in mm Hg (oxygen tension at 50% saturation, control vs treated); conditions: 37° C., difference control vs treated, negative = toward normal Hb-S oxygen affinity, oxygen partial pressure plotted in mm Hg
Experimental: The compounds described herein were tested in an "Oxygen-Affinity Assay" to measure the ability of the compound to influence the Hb-S oxygen affinity. There is a relationship between oxygen binding and Hb-S gelation and thus a measure of oxygen affinity is an index of Hb-S aggregation within the red blood cell. Hemoglobin S polymers decrease the overall oxygen affinity. Thus a return to normal of Hb-S oxygen affinity is a measure of decreased gelation. For measurements of oxygen equilibria whole Hb-S blood was equilibrated in a tonometer at 37° C. and measurements were made in the presence of a 5 millimolar (mM) or 10 mM concentration of the test compound. The whole blood pH, oxygen tension, and blood PO2 were measured. The percentage of oxygen saturation was plotted against the partial pressure of oxygen (mm Hg). The P50 value (oxygen tension at 50% saturation) was determined for each control and treated whole blood sample and the difference (Δ P50) between the control and treated whole blood sample noted. As used herein, a negative Δ P50 represents a change toward a normal Hb-S oxygen affinity and thus is a measure of the test compound's ability to inhibit the sickling of sickle erythrocytes.

[2] = normal adults, single dosages 25 to 250 milligrams, cited from earlier work
[3] = compound and its pharmaceutically-acceptable salts; cited from earlier work
[4] = compound and its pharmaceutically-acceptable salts; cited from earlier work; remark: listed apart in the source
[5] = compound and its pharmaceutically-acceptable salts; cited from earlier work; remark: listed apart in the source
[6] = compound and its pharmaceutically-acceptable salts; cited from earlier work; remark: listed apart in the source

Compound	Δ P50 ([1]; 5 mM test compound)	Δ P50 ([1]; 10 mM test compound)	further results
Cl.Clc1ccc(NCC2=NCCN2)cc1Cl [Example 1, 2-((3,4-dichloroanilino)methyl)-2-imidazoline hydrochloride]	-9	-12.6	–
Cl.Cl.Nc1ccc(SCC2=NCCN2)cc1Cl [Example 4, 2-(((4-Amino-3-chlorophenyl)thio)methyl)-2-imidazoline Dihydrochloride]	-9	-10.0	–
Cl.Clc1ccc(OCC2=NCCN2)cc1Cl [Example 2, 2-((3,4-dichlorophenoxy)methyl)-2-imidazoline hydrochloride]	-8	-8.0	blood pressure ([2]; at high dose level): increased blood pressure; heart rate ([2]; at high dose level): decreased heart rate; ill effects [2]: no ill effects other than a "tingling sensation" on the skin reported by some of the subjects
Clc1ccc(OCC2=NCCN2)cc1Cl [fenmetozole, 2-((3,4-Dichlorophenoxy)methyl)-2-imidazoline]	–	–	barbiturate antagonist activity [3]: barbiturate antagonist activity; alcohol antagonist activity [4]: alcohol antagonist activity; activity against minimal brain dysfunction in children [5]: activity against minimal brain dysfunction in children; antidepressant activity [6]: antidepressant
Cl.Oc1ccc(SCC2=NCCN2)cc1Cl [Example 3, 2-Chloro-4-(((2-imidazolin-2-yl)methyl)thio)-phenol Hydrochloride]	0	-13.0	–
